The results in this text go back to ChEMBL document CHEMBL1150977, “A quantitative analysis of kinase inhibitor selectivity” (Nat Biotechnol, 2008).

The structures appear in SMILES notation. pKd: −log10 of the molar value. Bounds are passed on as bounds.

The target of one test is Insulin receptor (Homo sapiens, UniProt P06213).
Test [1] addresses Dual specificity protein kinase CLK3 (Homo sapiens, UniProt P49761).
In test [2] the target is T1, Dual specificity mitogen-activated protein kinase kinase 3 (Homo sapiens, UniProt P46734).
T1 sequence (P46734 whole entry): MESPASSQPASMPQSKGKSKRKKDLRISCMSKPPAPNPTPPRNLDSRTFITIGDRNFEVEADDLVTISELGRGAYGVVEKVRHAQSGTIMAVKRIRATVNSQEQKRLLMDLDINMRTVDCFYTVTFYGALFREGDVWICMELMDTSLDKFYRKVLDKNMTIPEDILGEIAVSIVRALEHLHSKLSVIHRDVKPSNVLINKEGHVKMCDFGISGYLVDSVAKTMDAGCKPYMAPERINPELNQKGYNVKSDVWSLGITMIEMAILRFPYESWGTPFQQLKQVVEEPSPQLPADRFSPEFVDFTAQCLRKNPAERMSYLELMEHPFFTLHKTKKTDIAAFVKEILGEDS

Test [3] addresses Serine/threonine-protein kinase 38-like (Homo sapiens, UniProt Q9Y2H1).
Test [4] concerns the target T2, Serine/threonine-protein kinase Nek9 (Homo sapiens, UniProt Q8TD19).
T2 sequence (Q8TD19 whole entry): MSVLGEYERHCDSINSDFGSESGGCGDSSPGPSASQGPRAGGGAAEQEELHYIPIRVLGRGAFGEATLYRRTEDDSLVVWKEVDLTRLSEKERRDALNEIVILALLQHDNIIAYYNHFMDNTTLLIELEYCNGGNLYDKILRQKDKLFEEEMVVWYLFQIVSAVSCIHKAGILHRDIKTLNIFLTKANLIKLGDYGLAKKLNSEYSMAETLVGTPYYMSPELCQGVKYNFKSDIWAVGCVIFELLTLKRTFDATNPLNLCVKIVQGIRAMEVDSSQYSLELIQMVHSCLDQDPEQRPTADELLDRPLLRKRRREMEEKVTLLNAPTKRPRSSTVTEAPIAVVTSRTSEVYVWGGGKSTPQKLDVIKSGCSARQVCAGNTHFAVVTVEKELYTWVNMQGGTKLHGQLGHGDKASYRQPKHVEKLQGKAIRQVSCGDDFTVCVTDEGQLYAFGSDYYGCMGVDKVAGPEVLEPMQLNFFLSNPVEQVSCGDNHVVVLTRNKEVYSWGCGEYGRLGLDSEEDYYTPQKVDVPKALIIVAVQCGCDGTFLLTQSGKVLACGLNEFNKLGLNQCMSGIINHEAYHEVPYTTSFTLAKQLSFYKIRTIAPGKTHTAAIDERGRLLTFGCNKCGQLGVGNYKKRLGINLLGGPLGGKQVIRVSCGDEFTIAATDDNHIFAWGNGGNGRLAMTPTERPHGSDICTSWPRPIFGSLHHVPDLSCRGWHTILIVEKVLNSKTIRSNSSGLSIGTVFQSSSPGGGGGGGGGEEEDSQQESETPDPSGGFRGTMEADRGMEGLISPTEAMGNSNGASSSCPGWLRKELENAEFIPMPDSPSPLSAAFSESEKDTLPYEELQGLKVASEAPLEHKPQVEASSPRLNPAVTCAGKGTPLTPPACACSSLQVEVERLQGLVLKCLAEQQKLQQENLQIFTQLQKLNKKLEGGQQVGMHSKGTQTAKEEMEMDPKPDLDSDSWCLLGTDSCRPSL

Another test addresses T3, Ephrin type-A receptor 1 (Homo sapiens, UniProt P21709).
T3 sequence (P21709 whole entry): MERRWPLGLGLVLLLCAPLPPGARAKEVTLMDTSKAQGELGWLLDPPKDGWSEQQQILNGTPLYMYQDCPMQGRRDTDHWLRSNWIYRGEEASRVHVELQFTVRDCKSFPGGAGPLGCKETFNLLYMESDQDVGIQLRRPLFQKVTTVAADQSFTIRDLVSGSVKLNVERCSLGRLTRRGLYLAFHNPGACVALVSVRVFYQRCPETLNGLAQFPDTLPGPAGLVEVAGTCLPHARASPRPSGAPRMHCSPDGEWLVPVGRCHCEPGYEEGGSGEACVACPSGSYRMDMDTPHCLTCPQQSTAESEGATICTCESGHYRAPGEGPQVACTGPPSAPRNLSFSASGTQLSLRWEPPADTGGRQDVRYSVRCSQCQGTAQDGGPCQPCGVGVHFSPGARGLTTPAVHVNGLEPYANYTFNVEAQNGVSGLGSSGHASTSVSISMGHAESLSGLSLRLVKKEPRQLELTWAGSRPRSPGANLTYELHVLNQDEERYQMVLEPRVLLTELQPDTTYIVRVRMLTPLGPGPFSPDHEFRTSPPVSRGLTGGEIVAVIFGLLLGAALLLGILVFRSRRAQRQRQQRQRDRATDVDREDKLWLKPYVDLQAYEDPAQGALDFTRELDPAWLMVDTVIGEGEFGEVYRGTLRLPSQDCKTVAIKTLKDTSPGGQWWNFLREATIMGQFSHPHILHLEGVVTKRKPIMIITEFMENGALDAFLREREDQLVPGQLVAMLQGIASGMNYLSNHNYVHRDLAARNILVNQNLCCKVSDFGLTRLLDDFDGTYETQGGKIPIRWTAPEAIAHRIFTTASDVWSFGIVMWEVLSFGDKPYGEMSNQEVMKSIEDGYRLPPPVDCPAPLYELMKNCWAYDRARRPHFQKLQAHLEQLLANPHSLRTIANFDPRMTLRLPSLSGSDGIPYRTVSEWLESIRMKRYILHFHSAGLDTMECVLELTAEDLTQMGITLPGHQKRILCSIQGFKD

In test [5] the target is Non-receptor tyrosine-protein kinase TYK2 (Homo sapiens, UniProt P29597).
In test [6] the target is Glycogen synthase kinase-3 alpha (Homo sapiens, UniProt P49840).
Test [7] deals with Serine/threonine-protein kinase Nek6 (Homo sapiens, UniProt Q9HC98).
Chain of Serine/threonine-protein kinase Nek6 (Q9HC98 whole entry): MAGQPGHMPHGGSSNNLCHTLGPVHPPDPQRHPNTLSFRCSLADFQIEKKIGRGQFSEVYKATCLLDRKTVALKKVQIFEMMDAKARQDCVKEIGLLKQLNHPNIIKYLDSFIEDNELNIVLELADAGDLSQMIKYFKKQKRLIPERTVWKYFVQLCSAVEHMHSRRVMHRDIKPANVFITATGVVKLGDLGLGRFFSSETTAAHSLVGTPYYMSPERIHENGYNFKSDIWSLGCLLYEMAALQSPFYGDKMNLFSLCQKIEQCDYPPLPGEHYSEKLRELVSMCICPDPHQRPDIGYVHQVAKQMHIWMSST

Chain of Insulin receptor (P06213 28-758 limits assumed): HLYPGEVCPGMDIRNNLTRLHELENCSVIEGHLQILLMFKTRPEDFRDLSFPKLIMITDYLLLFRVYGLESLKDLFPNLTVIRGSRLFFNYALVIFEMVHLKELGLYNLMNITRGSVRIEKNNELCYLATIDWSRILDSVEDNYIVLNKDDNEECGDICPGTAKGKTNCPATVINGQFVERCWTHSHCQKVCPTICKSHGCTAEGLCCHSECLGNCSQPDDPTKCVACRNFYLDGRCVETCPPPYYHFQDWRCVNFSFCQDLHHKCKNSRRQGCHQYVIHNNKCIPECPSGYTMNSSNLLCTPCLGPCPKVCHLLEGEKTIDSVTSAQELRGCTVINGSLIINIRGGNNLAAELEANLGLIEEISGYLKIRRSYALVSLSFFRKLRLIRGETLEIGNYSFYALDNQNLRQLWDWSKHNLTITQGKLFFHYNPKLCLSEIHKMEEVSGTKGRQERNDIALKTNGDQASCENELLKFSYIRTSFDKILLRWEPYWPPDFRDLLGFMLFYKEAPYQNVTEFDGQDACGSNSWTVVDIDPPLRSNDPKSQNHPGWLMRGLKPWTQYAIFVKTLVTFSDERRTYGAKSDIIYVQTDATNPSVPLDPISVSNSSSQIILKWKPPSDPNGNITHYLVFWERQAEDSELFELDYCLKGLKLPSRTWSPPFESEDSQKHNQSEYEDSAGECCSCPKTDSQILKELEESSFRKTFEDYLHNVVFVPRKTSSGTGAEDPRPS
Chain of Insulin receptor (P06213 763-1382 limits assumed): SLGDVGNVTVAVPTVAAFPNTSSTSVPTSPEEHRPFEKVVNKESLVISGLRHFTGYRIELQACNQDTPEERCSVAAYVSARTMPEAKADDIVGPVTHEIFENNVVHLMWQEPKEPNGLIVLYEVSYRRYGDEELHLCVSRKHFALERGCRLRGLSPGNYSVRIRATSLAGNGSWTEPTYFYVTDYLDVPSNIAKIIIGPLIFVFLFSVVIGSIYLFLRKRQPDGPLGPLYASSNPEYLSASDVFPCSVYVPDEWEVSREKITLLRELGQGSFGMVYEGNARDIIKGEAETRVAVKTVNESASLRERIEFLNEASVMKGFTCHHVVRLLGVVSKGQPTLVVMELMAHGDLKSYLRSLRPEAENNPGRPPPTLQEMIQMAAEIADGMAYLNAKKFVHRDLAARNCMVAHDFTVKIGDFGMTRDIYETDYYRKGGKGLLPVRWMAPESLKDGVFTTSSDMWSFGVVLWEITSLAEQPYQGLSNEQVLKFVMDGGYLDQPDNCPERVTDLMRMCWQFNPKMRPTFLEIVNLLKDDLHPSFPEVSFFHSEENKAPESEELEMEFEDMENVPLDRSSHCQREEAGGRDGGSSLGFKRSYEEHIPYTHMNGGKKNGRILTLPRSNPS
Chain of Glycogen synthase kinase-3 alpha (P49840 whole entry): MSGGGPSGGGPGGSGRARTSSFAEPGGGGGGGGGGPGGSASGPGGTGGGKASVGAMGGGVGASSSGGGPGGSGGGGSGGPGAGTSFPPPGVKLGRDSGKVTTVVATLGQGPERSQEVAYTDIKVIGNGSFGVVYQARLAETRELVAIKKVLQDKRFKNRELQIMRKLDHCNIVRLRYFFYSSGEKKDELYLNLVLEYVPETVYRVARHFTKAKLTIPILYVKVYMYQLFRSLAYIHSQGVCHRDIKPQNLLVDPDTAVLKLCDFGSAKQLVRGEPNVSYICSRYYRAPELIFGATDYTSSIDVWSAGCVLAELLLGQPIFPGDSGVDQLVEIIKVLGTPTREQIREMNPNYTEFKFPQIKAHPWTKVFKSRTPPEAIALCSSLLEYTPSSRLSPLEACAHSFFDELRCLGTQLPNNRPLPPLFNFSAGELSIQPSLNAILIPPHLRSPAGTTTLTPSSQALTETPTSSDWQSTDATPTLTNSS
Chain of Serine/threonine-protein kinase 38-like (Q9Y2H1 whole entry): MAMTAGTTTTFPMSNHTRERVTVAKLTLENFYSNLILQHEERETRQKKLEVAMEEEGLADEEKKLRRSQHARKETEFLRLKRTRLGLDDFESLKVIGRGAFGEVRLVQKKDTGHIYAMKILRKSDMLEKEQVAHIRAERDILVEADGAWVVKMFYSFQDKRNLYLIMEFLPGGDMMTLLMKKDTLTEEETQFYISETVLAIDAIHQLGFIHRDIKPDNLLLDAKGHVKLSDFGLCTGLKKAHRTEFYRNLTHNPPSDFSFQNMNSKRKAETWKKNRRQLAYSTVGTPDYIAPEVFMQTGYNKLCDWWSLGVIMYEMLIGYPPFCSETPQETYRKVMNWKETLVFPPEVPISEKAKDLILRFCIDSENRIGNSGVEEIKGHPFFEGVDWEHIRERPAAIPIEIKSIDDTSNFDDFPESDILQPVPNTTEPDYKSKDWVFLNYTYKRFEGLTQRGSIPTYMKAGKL
Chain of Dual specificity protein kinase CLK3 (P49761 whole entry): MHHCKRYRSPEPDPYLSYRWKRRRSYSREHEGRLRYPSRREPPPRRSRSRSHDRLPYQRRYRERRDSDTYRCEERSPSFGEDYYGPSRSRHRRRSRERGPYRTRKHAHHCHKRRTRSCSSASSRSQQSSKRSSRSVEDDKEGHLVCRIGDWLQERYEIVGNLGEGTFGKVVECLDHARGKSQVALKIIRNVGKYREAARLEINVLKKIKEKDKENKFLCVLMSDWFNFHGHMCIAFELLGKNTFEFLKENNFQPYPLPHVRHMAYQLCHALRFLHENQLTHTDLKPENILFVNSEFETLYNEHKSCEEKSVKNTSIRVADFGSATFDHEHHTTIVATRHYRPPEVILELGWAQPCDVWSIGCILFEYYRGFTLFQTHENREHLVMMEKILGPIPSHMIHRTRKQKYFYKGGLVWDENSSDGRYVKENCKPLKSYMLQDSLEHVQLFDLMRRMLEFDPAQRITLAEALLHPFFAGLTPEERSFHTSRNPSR
Chain of Non-receptor tyrosine-protein kinase TYK2 (P29597 whole entry): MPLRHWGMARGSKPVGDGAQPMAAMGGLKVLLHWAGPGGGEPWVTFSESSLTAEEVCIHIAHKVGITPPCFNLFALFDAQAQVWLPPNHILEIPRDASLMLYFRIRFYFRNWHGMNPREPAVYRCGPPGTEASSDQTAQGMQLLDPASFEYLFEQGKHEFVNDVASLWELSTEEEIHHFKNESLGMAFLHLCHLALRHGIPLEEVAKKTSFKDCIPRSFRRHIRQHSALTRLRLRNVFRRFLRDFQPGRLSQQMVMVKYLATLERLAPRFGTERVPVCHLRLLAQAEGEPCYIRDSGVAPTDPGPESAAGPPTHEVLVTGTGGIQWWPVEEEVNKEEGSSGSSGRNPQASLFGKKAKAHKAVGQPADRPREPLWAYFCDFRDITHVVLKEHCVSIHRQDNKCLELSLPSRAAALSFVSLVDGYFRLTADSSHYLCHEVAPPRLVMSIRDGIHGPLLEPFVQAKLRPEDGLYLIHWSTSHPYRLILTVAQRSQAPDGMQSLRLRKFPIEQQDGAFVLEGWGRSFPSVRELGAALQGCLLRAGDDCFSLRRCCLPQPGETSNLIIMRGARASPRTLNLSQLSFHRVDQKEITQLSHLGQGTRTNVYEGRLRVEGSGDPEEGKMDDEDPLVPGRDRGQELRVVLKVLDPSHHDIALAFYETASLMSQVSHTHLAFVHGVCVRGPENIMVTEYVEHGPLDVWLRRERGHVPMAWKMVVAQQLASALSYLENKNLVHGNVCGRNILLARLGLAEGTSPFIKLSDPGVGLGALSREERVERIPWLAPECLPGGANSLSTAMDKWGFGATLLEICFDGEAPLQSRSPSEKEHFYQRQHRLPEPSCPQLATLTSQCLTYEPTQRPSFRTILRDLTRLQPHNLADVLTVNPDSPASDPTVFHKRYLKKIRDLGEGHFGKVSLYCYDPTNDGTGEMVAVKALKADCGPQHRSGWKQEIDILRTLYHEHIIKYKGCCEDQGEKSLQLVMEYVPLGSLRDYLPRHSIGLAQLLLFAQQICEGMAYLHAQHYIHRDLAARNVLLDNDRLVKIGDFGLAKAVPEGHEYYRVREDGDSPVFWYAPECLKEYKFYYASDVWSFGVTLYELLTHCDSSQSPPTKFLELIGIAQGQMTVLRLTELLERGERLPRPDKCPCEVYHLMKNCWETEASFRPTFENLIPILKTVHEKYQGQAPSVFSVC

Turning to `CCN1CCN(Cc2ccc(NC(=O)Nc3ccc(Oc4cc(NC)ncn4)cc3)cc2C(F)(F)F)CC1` [AST-487], the pKd (on Insulin receptor; in test [1]; in test [2]; in [3]; in test [4]; at Ephrin type-A receptor 1) was less than 5.00 in each case. For the same compound, the results for the pKd in test [5], in [6] and in [7] were 5.68, less than 5.00 and less than 5.00, respectively.
On to `COCC(=O)NC/C=C/c1ccc2ncnc(Nc3ccc(Oc4ccc(C)nc4)c(C)c3)c2c1` [CP-724714], for which the pKd (at Insulin receptor; in test [1]; in [2]; in test [3]; in [4]; on Ephrin type-A receptor 1) was less than 5.00 throughout. Moreover, the pKd in test [5], in [6] and in [7] was less than 5.00 each time.
On to `Nc1nc(Nc2ccc(S(N)(=O)=O)cc2)nn1C(=O)c1c(F)cccc1F` [JNJ-7706621], for which the pKd at Insulin receptor was less than 5.00; in [1], 6.51; in test [2] it was 5.82; in test [3] it was less than 5.00; in [4], less than 5.00; at Ephrin type-A receptor 1 it was less than 5.00. Further, the results for the pKd in test [5], in [6] and in [7] were 7.49, 6.80 and less than 5.00, respectively.
With `CCOc1cc2ncc(C#N)c(Nc3ccc(F)c(Cl)c3)c2cc1NC(=O)/C=C/CN(C)C` [PELITINIB], the pKd at Insulin receptor was less than 5.00; in [1] it was 5.25; in test [2], less than 5.00; in test [3] it was less than 5.00; in [4] it was less than 5.00; on Ephrin type-A receptor 1, less than 5.00. Also, the negative logarithm of the Kd (pKd) in [5], in test [6] and in [7] was less than 5.00 throughout.
As to `Oc1ccc(-c2nc(-c3ccncc3)c(-c3ccc(F)cc3)[nH]2)cc1` [SB-202190], the pKd (on Insulin receptor; in test [1]; in test [2]; in test [3]; in test [4]; on Ephrin type-A receptor 1) was less than 5.00 in each case. Besides, the pKd in [5], in test [6] and in test [7] was less than 5.00 throughout.
As for `NC(=O)c1ccc(-c2nc(-c3ccc4c(c3)OCO4)c(-c3ccccn3)[nH]2)cc1` [SB-431542], the pKd (on Insulin receptor; in test [1]; in test [2]; in test [3]; in [4]; at Ephrin type-A receptor 1) was less than 5.00 each time. Moreover, the pKd in test [5], in [6] and in test [7] was less than 5.00 throughout.

The pKd is the Kd on a negative log10 scale, so that one unit is a factor of ten.
